Results on two molecules are retold here after ChEMBL document CHEMBL4680352, “Rational design and synthesis of 6-aryl-6H-benzo[c]chromenes as non-steroidal progesterone receptor antagonists for use against cancers” (Bioorg Med Chem, 2021).

Active and inactive are the calls of the source. The calls are words filed in the database; no cut-off is given here.

The subject of one assay is A549. The assay is described as follows: Antiproliferative activity against human A549 cells assessed as inhibition of cell viability after 72 hrs by CCK-8 assay. The assay is classed as functional, cell-based. The settings on record: A549, 72 h.
The test system of the next assay is BGC-823. In words: Antiproliferative activity against human BGC-823 cells assessed as inhibition of cell viability after 72 hrs by CCK-8 assay. The conditions noted are these: BGC-823, 72 h. The assay is classed as functional, cell-based.
The subject of another assay is PC-3. In words: Antiproliferative activity against human PC-3 cells assessed as inhibition of cell viability after 72 hrs by CCK-8 assay. The assay is classed as functional, cell-based. The conditions noted are these: PC-3, 72 h.
The next assay concerns MDA-MB-231. In words: Antiproliferative activity against human MDA-MB-231 cells assessed as inhibition of cell viability after 72 hrs by CCK-8 assay. The assay is classed as functional, cell-based. The conditions noted are these: MDA-MB-231, 72 h. Background: Tetrazolium assays rely on reduction of a dye to a coloured formazan, in cell work by metabolically active cells.
The subject of assay [1] is MCF7. The assay is described as follows: Antiproliferative activity against human MCF7 cells assessed as inhibition of cell viability after 72 hrs by CCK-8 assay. The conditions noted are these: MCF7, 72 h. The assay is classed as functional, cell-based.
A further assay relates to MCF-10A. In words: Cytotoxicity against human MCF-10A cells assessed as inhibition of cell viability after 72 hrs by CCK-8 assay. The assay is classed as cell-based.
Assay [2] can be described thus: Selectivity index, ratio of IC50 for human MCF-10A cells to IC50 for human MCF-7 cells.
In assay [3] the test system is MCF7. The assay is described as follows: Antiproliferative activity against human MCF7 cells assessed as cell growth inhibition at 6 uM by CCK-8 assay. The assay is classed as functional, cell-based. The settings on record: time 24-72 hrs, TDE = time-dependent effect.
The test system of assay [4] is MCF7. In words: Induction of cell cycle arrest in human MCF7 cells assessed as decrease in CDK4 protein expression at 3 to 12 uM after 48 hrs by Western blot analysis. The assay is classed as functional, cell-based. The settings on record: dose 3-12 µM.
For assay [5], the system named is MCF7. In words: Induction of cell cycle arrest in human MCF7 cells assessed as decrease in cyclin D1 protein expression expression at 3 to 12 uM after 48 hrs by Western blot analysis. The assay is classed as functional, cell-based. The conditions noted are these: dose 3-12 µM. (In general: In western blotting, separated proteins are transferred to a membrane and probed.)

For assay [6], the system named is MCF7. In words: Induction of cell cycle arrest in human MCF7 cells assessed as increase in p21 protein expression after 48 hrs by Western blot analysis. The assay is classed as functional, cell-based. The conditions noted are these: dose 3-12 µM.
The subject of assay [7] is MCF7. In words: Induction of apoptosis in human MCF7 cells at 3 uM measured after 48 hrs by Annexin V-FITC and propidium iodide staining based flow cytometry (reference value: 4.88%). The assay is classed as functional.
The test system of assay [8] is MCF7. In words: Induction of apoptosis in human MCF7 cells at 6 uM measured after 48 hrs by Annexin V-FITC and propidium iodide staining based flow cytometry (Rvb =4.88%). The assay is classed as functional. In general terms: A flow cytometer gives signals particle by particle.
In assay [9] the test system is MCF7. The assay is described as follows: Induction of apoptosis in human MCF7 cells at 12 uM measured after 48 hrs by Annexin V-FITC and propidium iodide staining based flow cytometry (Rvb =4.88%). The assay is classed as functional.
In assay [10] the test system is MCF7. The assay is described as follows: Induction of apoptosis in human MCF7 cells at 6 uM measured after 24 hrs by Annexin V-FITC and propidium iodide staining based flow cytometry (Rvb =3.54%). The assay is classed as functional.
Assay [11] concerns MCF7. The assay is described as follows: Induction of apoptosis in human MCF7 cells at 6 uM measured after 72 hrs by Annexin V-FITC and propidium iodide staining based flow cytometry (Rvb =4.62%). The assay is classed as functional.
For assay [12], the system named is MCF7. In words: Decrease in Bcl-2 expression in human MCF7 cells at 3 to 12 uM measured after 48 hrs by Western blot analysis. The assay is classed as functional, cell-based. The settings on record: dose 3-12 µM.
The test system of assay [13] is MCF7. In words: Induction of apoptosis in human MCF7 cells assessed as increase in Bax expression at 3 to 12 uM measured after 48 hrs by Western blot analysis. The conditions noted are these: dose 3-12 µM. The assay is classed as functional, cell-based.
Assay [14] concerns MCF7. In words: Induction of apoptosis in human MCF7 cells assessed as increase in p53 expression measured at 3 to 12 uM after 48 hrs by Western blot analysis. The assay is classed as functional, cell-based. The conditions noted are these: dose 3-12 µM.
The test system of assay [15] is MCF7. The assay is described as follows: Induction of apoptosis in human MCF7 cells assessed as increase in p53 phosphorylation at Ser15 residue at 3 to 12 uM measured after 48 hrs by Western blot analysis. The assay is classed as functional, cell-based. The conditions noted are these: dose 3-12 µM.
Assay [16] concerns MCF7. The assay is described as follows: Induction of apoptosis in human MCF7 cells assessed as increase in cleaved caspase-3 level at 3 to 12 uM measured after 24 to 72 hrs by flow cytometry. The assay is classed as functional, cell-based. The conditions noted are these: dose 3-12 µM, time 24-72 hrs.
For assay [17], the target named is T1, Progesterone receptor (Homo sapiens) (UniProt P06401).
T1 sequence (whole entry): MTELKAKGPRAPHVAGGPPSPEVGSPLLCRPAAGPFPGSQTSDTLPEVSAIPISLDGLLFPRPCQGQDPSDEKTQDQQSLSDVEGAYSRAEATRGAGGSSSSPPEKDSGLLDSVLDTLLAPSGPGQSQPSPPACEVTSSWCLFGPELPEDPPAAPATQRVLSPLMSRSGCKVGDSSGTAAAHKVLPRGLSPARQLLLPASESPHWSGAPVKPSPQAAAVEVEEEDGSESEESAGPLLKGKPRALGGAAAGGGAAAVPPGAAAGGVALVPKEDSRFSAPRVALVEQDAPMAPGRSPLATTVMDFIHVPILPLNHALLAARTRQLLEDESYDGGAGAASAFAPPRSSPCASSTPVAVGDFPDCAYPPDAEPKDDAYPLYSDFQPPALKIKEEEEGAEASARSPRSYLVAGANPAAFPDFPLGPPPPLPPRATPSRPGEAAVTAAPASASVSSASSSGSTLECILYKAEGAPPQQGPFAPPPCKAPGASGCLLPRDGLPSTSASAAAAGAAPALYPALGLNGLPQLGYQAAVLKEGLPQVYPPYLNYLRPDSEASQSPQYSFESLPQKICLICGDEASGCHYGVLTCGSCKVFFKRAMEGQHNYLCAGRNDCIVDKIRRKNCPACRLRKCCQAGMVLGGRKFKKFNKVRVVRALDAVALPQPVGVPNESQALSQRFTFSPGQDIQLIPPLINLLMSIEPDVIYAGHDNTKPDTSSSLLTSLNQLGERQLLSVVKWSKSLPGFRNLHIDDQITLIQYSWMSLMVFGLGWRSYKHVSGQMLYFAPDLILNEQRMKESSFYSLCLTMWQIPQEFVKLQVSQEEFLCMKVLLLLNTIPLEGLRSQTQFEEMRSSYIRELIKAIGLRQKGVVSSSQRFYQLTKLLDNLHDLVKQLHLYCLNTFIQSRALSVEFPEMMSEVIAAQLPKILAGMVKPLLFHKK
In words: Antagonist activity at PR in human T47D cells assessed as inhibition of progesterone-induced alkaline phosphatase activity by alkaline phosphatase assay. The assay is classed as cell-based. The settings on record: filed as antagonist.

In assay [18] the test system is MCF7. The assay is described as follows: Induction of apoptosis in human MCF7 cells assessed as increase in ratio of Bax to Bcl2 level measured at 3 to 12 uM after 48 hrs by Western blot analysis. The assay is classed as functional, cell-based. The conditions noted are these: dose 3-12 µM.

On to `COc1cc2c(cc1OC)C(c1ccccc1OC)Oc1ccccc1-2` (stereo unspecified), for which the IC50 (commonly the concentration that inhibits the measured activity by half) turned out to be 13.2 µM in the assay on A549; 9.1 µM in the assay on BGC-823; 9.32 µM in the assay with PC-3; 8.4 µM in the assay with MDA-MB-231; 6.32 µM with MCF7 [1]; 48.9 µM with MCF-10A. Moreover, in assay [2], the “Ratio IC50” value amounted to 7.73. Further, the Activity entry is “Tde” in the assay with MCF7 [3]; “Dose-dependent effect” with MCF7 [6]; 12.98% in the assay on MCF7 [7]; 18.87% in the assay on MCF7 [8]; 31.22% with MCF7 [9]; 11.91% with MCF7 [10]. For the same molecule, in the assay on MCF7 [11], the Activity amounted to 34.38%. Also, the result in the assay on MCF7 [4], in the assay with MCF7 [5], in the assay with MCF7 [13], in the assay with MCF7 [14], in the assay with MCF7 [15] and with MCF7 [16] was Active. The result in the assay on MCF7 [18] was Active. In addition, the inhibition entry (in the assay on MCF7 [12]; in assay [17]) was “Active” in each case.
On to `COc1ccccc1C1Oc2ccccc2-c2cc(OCc3ccccc3)c(OCc3ccccc3)cc21` (stereo unspecified), for which the IC50 is 10 µM in the assay on A549; 7.82 µM in the assay with BGC-823; 7.5 µM in the assay with PC-3; 9.15 µM in the assay on MDA-MB-231; 5.71 µM in the assay with MCF7 [1]; 51.3 µM in the assay on MCF-10A. In addition, the “Ratio IC50” value in assay [2] turned out to be 8.98. Moreover, the Activity entry is “Tde” in the assay with MCF7 [3]; “Dose-dependent effect” with MCF7 [6]; 11.71% with MCF7 [7]; 22.97% with MCF7 [8]; 32.56% in the assay with MCF7 [9]; 13.95% in the assay with MCF7 [10]. The molecule also had an Activity in the assay on MCF7 [11] of 36.93%. In addition, the outcome in the assay on MCF7 [4], in the assay on MCF7 [5], in the assay with MCF7 [13], with MCF7 [14], in the assay on MCF7 [15] and in the assay on MCF7 [16] was Active. Also, the outcome with MCF7 [18] was Active. Moreover, the inhibition result (in the assay on MCF7 [12]; in [17]) was “Active” each time.
